For data set [1] the following is noted: cited from earlier work.
Data set [2] can be described thus: Shake flask solubility in pH 6.8 phosphate buffer. Format: physicochemical.
For data set [3] the following is noted: after oral administration; cited from earlier work.
Data set [4] in a line: Pharmacokinetic study after oral administration. Format: in vivo, BALB/c mice. To be noted: female, BALB/c, mouse, plasma, 30 mg/kg.
Data set [5] is described as follows: Powder dissolution, USP apparatus II. Format: physicochemical. The settings on record: pH 6.8.
Setting [6] is: first pKa, 24 for cocrystal coformers.

Values after ≈ are worked out from the molar mass of the structure shown. Read-outs that look alike come from different tables or passages of the source.

In general, pKa refers to the pH at which an ionisable group is half protonated. The term solubility denotes how much of the substance goes into solution per volume. Higher therefore signals a readily soluble substance. What is called AUC(0-t) is the area under the concentration-time curve up to a stated or last time point. A lower AUC(0-t) goes with low exposure. The Cmax is the highest concentration seen after dosing. By aqueous solubility is commonly meant the concentration that dissolves in the medium under given conditions. Broadly, the log P is a log measure of how a compound divides between an organic and an aqueous phase.

As for `O=C(O)c1ccc(O)cc1O` [2,4-dihydroxybenzoic acid], in data set [1] (second pKa, ref 24 for 2,4-dihydroxybenzoic acid), the pKa is 8.5.
`Oc1ncnc2[nH]ncc12` [ALO, 1H-pyrazolo[3,4-d]pyrimidine-4(2H)-one] displayed a solubility at 4 h in data set [2] of 0.687 mg/mL (≈ 5.05 mM). In addition, the “time within which the drug is metabolized” value in data set [3] is ≤ 2 h. Also, in data set [4], the AUC(0-t) stood at 36900 ng·h/mL and the Cmax amounted to 7010 ± 187 ng/mL. The molecule further came in with a solubility at 1 h in data set [5] of 0.676 mg/mL (≈ 4.97 mM). Besides, the aqueous solubility in data set [1] was 0.8 mg/mL (≈ 5.88 mM). In addition, in data set [1] (setting [6]), the pKa was 10.1.
As for `O=C(O)c1ccnc(C(=O)O)c1` [pyridine 2,4-dicarboxylic acid], in data set [1] (setting [6]), the pKa is given as 2.15.
Take `O=C(O)c1c(O)cccc1O` [2,6-dihydroxybenzoic acid]: in data set [1] (coformers), the “log P” value is listed as 2.14.
In the case of `O=C(O)CCCC(=O)O` [glutaric acid], the solubility of coformer in data set [1] (highly soluble coformers) is 1600 mg/mL.
